{"source": "patent US10639299B2", "about": "“Calcium sensing receptors, ligands, compositions, and methods of use” (Georgia State University Research Foundation, Inc., priority 2016, dated 2020)", "target": "T1, hCaSR-ECD (Homo sapiens, UniProt P41180)", "T1 construct": "made in house; host or cells: HEK293S (GnTI-) suspension culture, secreted", "T1 sequence (P41180 20-612)": "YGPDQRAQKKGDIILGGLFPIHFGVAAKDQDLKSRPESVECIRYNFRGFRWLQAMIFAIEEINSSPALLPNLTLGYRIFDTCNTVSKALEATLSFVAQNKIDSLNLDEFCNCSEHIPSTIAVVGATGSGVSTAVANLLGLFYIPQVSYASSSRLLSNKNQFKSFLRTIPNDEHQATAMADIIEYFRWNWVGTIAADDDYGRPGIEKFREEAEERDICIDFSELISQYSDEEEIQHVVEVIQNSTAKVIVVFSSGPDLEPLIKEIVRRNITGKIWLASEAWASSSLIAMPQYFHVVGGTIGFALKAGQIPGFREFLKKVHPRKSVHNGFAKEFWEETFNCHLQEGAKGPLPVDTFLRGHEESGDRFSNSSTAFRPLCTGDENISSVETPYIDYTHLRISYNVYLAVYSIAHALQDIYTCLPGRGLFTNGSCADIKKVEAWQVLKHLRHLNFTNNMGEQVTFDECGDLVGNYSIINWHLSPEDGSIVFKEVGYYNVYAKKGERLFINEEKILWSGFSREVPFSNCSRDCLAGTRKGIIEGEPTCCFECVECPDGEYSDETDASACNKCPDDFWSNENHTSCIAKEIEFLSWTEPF", "assay": "Phenylalanine replacement of TNCA bound to hCaSR-ECD, LC-ESI-MS", "type": "binding", "conditions": "overnight, 838 at 0 mM", "procedure": "Considering CaSR ligand is tightly bound with hCaSR-ECD, it is conceivable that hCaSR-ECD has to be denatured to release CaSR ligand. To extract CaSR ligand, 50 μL of purified hCaSR-ECD (10 mg/mL) was mixed with 120 μL acetonitrile and vortexed. After high speed centrifugation, 10 μL of the CaSR ligand extract was injected onto a reverse-phase ACQUITY UPLC BEH C18 column (2.1 mm×100 mm, 1.7-μm particle size; Waters). Column temperature was maintained at 40° C. The flow rate was 0.3 mL/min with starting conditions at 99% solvent A (water+0.1% formic acid) and 1% solvent B (acetonitrile). The 15-min gradient profile for elution was as follows: starting at 1% solvent B and hold for 1 min, then ramping to 98% B at 10 min, hold at 98% B to 12 min, at 12.01 min return to 99% A/1% B and maintain until 15 min. The samples were analyzed by using a Waters Xevo G2-XS QToF LC-MS interfaced to a Waters Acquity UPLC system. […] Fragmentation, formula, and abundances were analyzed with Waters MassLynx Software.\nA phenylalanine replacement experiment was carried out by mixing purified hCaSR-ECD protein (0.26 mg/mL) with phenylalanine (final concentrations are 0, 50 and 150 mM, respectively). […] The protein samples were adjusted to the same concentration using SEC buffer and analyzed by LC-ESI-MS."}
{"smiles": "N[C@@H](Cc1ccccc1)C(=O)O", "note": "[Phe, phenylalanine]", "values": [{"measurement": "area under the MS peak of TNCA remaining bound to hCaSR-ECD", "setting": "50 mM phenylalanine", "result": 180}, {"measurement": "area under the MS peak of TNCA remaining bound to hCaSR-ECD", "setting": "150 mM phenylalanine", "result": 76}]}
